Consider nine molecules from US20020058275A1, “Compositions, kits, and methods for effecting adenine nucleotide modulation of DNA mismatch recognition proteins” (Thomas Jefferson University, priority 1997, published 2002).

The term Km denotes the concentration of substrate that gives half-maximal velocity.

Data set [1] addresses T1, hMSH2:hMSH6 heterodimer (Homo sapiens, UniProt P43246+P52701).
T1 construct: made in house; host or cells: SF9 insect cells, baculovirus (pFastBac dual)
Nature of the data set: ADP exchange assay (filter binding of [3H]-ADP). Conditions: excess non-labeled ATP. Here is the method:
The ADP-ATP exchange rate was determined in a reaction mixture which comprised Buffer Q, 2.3 micromolar [^3H]-ADP, and 60 nanomolar hMSH2:hMSH6 heterodimer. Buffer Q comprised 25 millimolar HEPES which had been adjusted to pH 7.8 using NaOH, 75 millimolar NaCl, 10 millimolar MgCl2, 1 millimolar DTT, and 15% (v/v) glycerol. This reaction mixture was incubated for ten minutes at room temperature. 240 nanomolar G/T-mismatched 39-base pair DNA substrate was added to the reaction mixture, and the incubation was continued for an additional ten minutes. The final volume of the reaction mixture was 10 microliters. […] Reactions were incubated at 25° C. for a selected time and then halted by diluting the reaction mixture with 4 milliliters of an ice-cold stop buffer comprising 25 millimolar HEPES which had been adjusted to pH 7.8 using NaOH, 100 millimolar NaCl, and 10 millimolar MgCl2.
Each halted reaction mixture was immediately filtered on a HAWP nitrocellulose membrane (Millipore, Bedford, Mass.) and washed thrice with 4 milliliters of the ice-cold stop buffer. […] Radioactivity retained on the filters was quantified using a Beckman scintillation counter. […] The amount of [^3H]-ADP retained on the membrane to which the control reaction mixture was applied was considered to correspond to the amount of radioactivity retained when 100% of the complex had [^3H]-ADP bound thereto.

Data set [2] addresses T1, hMSH2:hMSH6 heterodimer. The experiment in a line: Gel mobility shift assay of adenine nucleotide effects on mismatch binding and release. Conditions: for effect on G/T mismatch binding / release of the heterodimer from G/T-mismatched DNA substrate: nucleotide added to the mismatch binding reaction mixture, FIG. 3 at 25 and 250 micromolar; for IC50: G/T-mismatched DNA substrate, read-out: IC50 (concentration required to cause release of 50% of a population of heterodimers from a G/T-mismatched DNA substrate); for S-shifted material re-associated with the DNA as NS-shifted heterodimer: increasing amounts of nucleotide added. It is filed as biochemical.

For data set [3], the target named is T2, hMSH2:hMSH6 heterodimer ATPase (Homo sapiens, UniProt P43246+P52701).
T2 construct: made in house; host or cells: SF9 insect cells, baculovirus (pFastBac dual)
T2 sequence (P43246 whole entry): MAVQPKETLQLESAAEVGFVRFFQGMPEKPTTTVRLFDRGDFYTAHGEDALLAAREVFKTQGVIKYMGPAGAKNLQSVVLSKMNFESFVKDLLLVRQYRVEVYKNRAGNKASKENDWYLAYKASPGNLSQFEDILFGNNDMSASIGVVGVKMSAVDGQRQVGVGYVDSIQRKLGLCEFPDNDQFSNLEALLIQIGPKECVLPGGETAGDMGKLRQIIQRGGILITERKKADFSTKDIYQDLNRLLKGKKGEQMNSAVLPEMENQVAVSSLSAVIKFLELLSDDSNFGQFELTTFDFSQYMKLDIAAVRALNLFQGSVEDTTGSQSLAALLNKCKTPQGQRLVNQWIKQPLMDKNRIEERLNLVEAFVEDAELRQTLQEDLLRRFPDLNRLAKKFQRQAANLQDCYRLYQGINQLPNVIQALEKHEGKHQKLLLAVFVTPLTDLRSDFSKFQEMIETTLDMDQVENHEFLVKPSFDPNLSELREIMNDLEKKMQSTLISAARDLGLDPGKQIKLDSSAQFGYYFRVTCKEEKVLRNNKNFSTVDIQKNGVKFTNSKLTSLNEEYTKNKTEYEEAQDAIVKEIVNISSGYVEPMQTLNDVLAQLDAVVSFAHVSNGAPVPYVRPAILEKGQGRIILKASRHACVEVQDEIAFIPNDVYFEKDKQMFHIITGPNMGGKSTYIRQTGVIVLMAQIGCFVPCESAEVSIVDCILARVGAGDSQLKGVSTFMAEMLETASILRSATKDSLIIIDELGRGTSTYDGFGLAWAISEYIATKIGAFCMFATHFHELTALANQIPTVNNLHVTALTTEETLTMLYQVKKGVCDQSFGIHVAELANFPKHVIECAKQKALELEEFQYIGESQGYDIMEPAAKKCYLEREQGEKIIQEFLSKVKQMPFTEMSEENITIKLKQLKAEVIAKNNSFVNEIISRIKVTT
T2 sequence (P52701 whole entry): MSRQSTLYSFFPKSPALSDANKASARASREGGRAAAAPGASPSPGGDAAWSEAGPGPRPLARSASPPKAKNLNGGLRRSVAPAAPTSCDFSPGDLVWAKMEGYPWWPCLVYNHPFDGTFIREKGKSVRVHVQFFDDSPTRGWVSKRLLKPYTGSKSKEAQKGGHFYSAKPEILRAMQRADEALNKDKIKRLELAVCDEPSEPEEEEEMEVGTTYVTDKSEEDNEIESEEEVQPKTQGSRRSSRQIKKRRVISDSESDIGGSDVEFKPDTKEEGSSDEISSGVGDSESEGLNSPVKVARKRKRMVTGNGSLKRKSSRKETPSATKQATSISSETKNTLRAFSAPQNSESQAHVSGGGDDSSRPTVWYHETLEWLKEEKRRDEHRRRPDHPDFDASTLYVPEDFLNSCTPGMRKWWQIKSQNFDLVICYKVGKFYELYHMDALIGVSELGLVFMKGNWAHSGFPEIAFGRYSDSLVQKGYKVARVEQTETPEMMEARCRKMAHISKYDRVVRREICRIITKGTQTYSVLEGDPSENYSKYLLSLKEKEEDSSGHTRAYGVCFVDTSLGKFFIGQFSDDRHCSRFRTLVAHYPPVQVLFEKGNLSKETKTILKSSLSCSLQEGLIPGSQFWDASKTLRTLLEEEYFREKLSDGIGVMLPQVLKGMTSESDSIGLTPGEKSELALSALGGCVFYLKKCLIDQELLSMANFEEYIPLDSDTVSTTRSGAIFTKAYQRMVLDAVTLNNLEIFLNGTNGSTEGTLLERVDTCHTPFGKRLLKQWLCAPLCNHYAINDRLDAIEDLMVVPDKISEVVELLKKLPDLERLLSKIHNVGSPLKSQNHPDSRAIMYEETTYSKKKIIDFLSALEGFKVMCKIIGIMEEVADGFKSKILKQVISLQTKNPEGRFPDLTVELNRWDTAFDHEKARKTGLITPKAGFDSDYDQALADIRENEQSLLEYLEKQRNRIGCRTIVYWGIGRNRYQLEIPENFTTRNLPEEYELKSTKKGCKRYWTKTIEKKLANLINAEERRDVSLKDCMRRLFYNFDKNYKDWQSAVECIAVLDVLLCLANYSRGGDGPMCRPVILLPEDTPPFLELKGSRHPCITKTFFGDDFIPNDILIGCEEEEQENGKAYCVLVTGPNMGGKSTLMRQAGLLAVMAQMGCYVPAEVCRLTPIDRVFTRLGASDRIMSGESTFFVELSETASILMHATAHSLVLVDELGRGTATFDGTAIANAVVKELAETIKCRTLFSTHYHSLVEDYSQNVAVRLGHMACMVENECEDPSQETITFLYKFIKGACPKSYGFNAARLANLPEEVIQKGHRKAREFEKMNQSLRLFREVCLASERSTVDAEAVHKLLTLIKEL
Nature of the data set: ATPase assays (steady state and initial velocity). It is filed as biochemical. Here is the method:
Buffer P comprised 40 millimolar HEPES which had been adjusted to pH 7.8 using NaOH, 75 millimolar NaCl, 10 millimolar MgCl2, 1.75 millimolar DTT, and 0.075 millimolar EDTA, and 15% (v/v) glycerol. Steady state reaction measurements were made using 60 nanomolar hMSH2:hMSH6 heterodimer and either 240 nanomolar homoduplex 39-base pair DNA substrate or 240 nanomolar G/T mismatched 39-base pair DNA substrate. Reaction mixtures were incubated at 37° C. for thirty minutes, and the reaction was stopped by addition of 400 microliters of a solution comprising 10% (w/v) activated charcoal (Sigma Chemical Co., St. Louis, Mo.) and 1 millimolar EDTA. Charcoal was pelleted by centrifuging the mixture at 10,000 rotations per minute for ten minutes. The 32p content of duplicate 100 microliter aliquots of the supernatant was assessed by liquid scintillation.
Aliquots were removed at selected times and electrophoresed as described herein. A control aliquot was removed and prepared for electrophoresis prior to addition of the MgCl2-containing Buffer P to the reaction mixture.
TLC was performed as previously described (Fishel et al., 1988, Proc. Natl. Acad. Sci. USA 85:36-40).

Data set [4] deals with G/T-mismatched 81-base pair DNA substrate. Nature of the data set: Gel mobility shift and DNase footprint assays of heterodimer binding to mismatched DNA. Here is the method: (§1) Gel mobility shift assays were performed by incubating a hMSH2:hMSH6 heterodimer and 9 femtomoles of either the ^32P-labeled homologous 81-base pair DNA substrate or the ^32P-labeled G/T-mismatched 81-base pair DNA substrate in a buffer comprising 50 millimolar NaCl, 25 millimolar HEPES buffer which had been adjusted to pH 7.5 using NaOH, 1 millimolar DTT, 0.01 millimolar EDTA, and 15% (v/v) glycerol. The buffer included 10 nanograms per microliter of poly dI-dC (Pharmacia LKB Biotechnology Inc., Piscataway, N.J.). […] In certain experiments described herein, the incubation mixture further comprised selected concentrations of nucleotides or non-labeled DNA. In other experiments described herein, the incubation mixture further comprised 1 millimolar MgCl2 or 5 millimolar EDTA. […] Each incubation mixture was applied to a gel comprising 4% (w/v) polyacrylamide (29:1 ratio of acrylamide:bis-acrylamide) 4% (v/v) glycerol, 40 millimolar Tris acetate buffer (pH 7.8), and 1 millimolar EDTA. Electrophoresis was performed by applying 200 volts to the gel for two hours. Following electrophoresis, each gel was dried and quantitated using a phosphoimaging device obtained from Molecular Dynamics.
Incubation of the hMSH2:hMSH6 heterodimer with ^32P-labeled DNA substrates was performed as described for gel mobility shift assays, except that 18 femtomoles of 32p-labeled DNA substrate was used in each assay. Following incubation, 80 microliters of a buffer comprising 50 millimolar NaCl, 25 millimolar HEPES buffer which had been adjusted to pH 7.8 using NaOH, 1 millimolar DTT, 10 nanograms per microliter poly dI-dC, 1.25 millimolar CaCl2, 3.1 millimolar MgCl2, 10% (v/v) glycerol, and 33 picograms per microliter DNase (Boehringer Mannheim, Indianapolis, Ind.) was added to each incubation mixture. […]

Data set [5] has as its system homologous 81-base pair DNA substrate. Nature of the data set: Gel mobility shift and DNase footprint assays of heterodimer binding to homoduplex DNA. Conditions: homoduplex concentrations greater than 400 nanomolar. Here is the method: as §1, with “Dynamics. […]” for “Dynamics.”
In data set [6] the target is T3, hMSH2:hMSH6 heterodimer (Homo sapiens, UniProt P43246;P52701 P43246:1-934,P52701:1-1360). The experiment in a line: EMSA; apparent Kd; no adenine nucleotide, no Mg; 50 mM NaCl, HEPES pH 7.5, poly dI-dC, 37 C. The note with it: tags: 6xHis at N-terminus of hMSH6; Sf9 baculovirus (pFastBac dual) co-expression; label: 32P 5' end; single G/T mismatch.
T3 sequence (P43246 whole entry, chain 1 of 2): as the sequence (P43246 whole entry) above
T3 sequence (P52701 whole entry, chain 2 of 2): as the sequence (P52701 whole entry) above
Experimental: (§2) The buffer included 10 nanograms per microliter of poly dI-dC (Pharmacia LKB Biotechnology Inc., Piscataway, N.J.). […] In certain experiments described herein, the incubation mixture further comprised selected concentrations of nucleotides or non-labeled DNA. In other experiments described herein, the incubation mixture further comprised 1 millimolar MgCl₂ or 5 millimolar EDTA. […] Each incubation mixture was applied to a gel comprising 4% (w/v) polyacrylamide (29:1 ratio of acrylamide:bis-acrylamide) 4% (v/v) glycerol, 40 millimolar Tris acetate buffer (pH 7.8), and 1 millimolar EDTA. Electrophoresis was performed by applying 200 volts to the gel for two hours. Following electrophoresis, each gel was dried and quantitated using a phosphoimaging device obtained from Molecular Dynamics.
(§3) The apparent dissociation constant (Kd) was determined in a simple buffer system comprising neither an adenine nucleotide nor magnesium using the homologous 81-base pair DNA substrate and the G/T-mismatched 81-base pair DNA substrate described herein.
The target of data set [7] is T3, hMSH2:hMSH6 heterodimer. The experiment in a line: footprint; DNase footprint; about 25 nt asymmetrically protected on both strands; no adenine nucleotide. Conditions: tags: 6xHis at N-terminus of hMSH6; Sf9 baculovirus (pFastBac dual) co-expression; label: 32P 5' end; single G/T mismatch.
Experimental: as §3
The target in data set [8] is T3, hMSH2:hMSH6 heterodimer. Nature of the data set: EMSA; no NS product observed with 39-bp homoduplex. The note with it: tags: 6xHis at N-terminus of hMSH6; Sf9 baculovirus (pFastBac dual) co-expression; fully complementary homoduplex. (In general: Mobility shift assays separate free from complexed probe on a gel.)
Experimental: as §2
Setting [9] is: 0.2 millimolar ATP, 1 millimolar MgCl2, ADP 0 to 3.2 millimolar.
The mark [10] stands for this setting: ATP alone as a substrate (absence of DNA).
The mark [11] stands for this setting: ATP and G/C-mismatched DNA as substrates.
The mark [12] stands for this setting: ATP and G/T-mismatched DNA as substrates.

T1 sequence (P43246 whole entry): as the sequence (P43246 whole entry) above
T1 sequence (P52701 whole entry): as the sequence (P52701 whole entry) above

Turning to `Nc1ncnc2c1ncn2[C@@H]1O[C@H](COP(=O)(O)OP(=O)(O)O)[C@@H](O)[C@H]1O` [ADP], at hMSH2:hMSH6 heterodimer [1] (absence of DNA), the “half-life of the ADP-bound heterodimer” value is reported as “greater than eight hundred”. Besides, the “half-life of the ADP-bound heterodimer” value on hMSH2:hMSH6 heterodimer [1] (presence of G/T-mismatched DNA substrate) is given as “less than two”. On hMSH2:hMSH6 heterodimer [2] (setting [9]), the “excess of ADP giving approximately complete reversal of ATP-caused substrate release” value stood at 16 fold and the “excess of ADP to ATP giving reversal of approximately half of the ATP-caused substrate release” value is on record as 2- to 3 fold. Moreover, the “effect on G/T mismatch binding / release of the heterodimer from G/T-mismatched DNA substrate” value (from here on “effect on G/T mismatch binding / release”) on hMSH2:hMSH6 heterodimer [2] is reported as “increased binding affinity”.
On to `Nc1ncnc2c1ncn2[C@H]1C[C@H](O)[C@@H](COP(=O)(O)OP(=O)(O)OP(=O)(O)O)O1` [dATP, 2′-deoxy adenosine triphosphate], for which the “effect on G/T mismatch binding / release” value on hMSH2:hMSH6 heterodimer [2] is “caused release”.
Turning to `Nc1ncnc2c1ncn2[C@@H]1O[C@H](COP(=O)(O)OP(=O)(O)CP(=O)(O)O)[C@@H](O)[C@H]1O` [AMP-PCP, adenyl-(beta-, gamma-methylene)-diphosphonate], at hMSH2:hMSH6 heterodimer [2], the “effect on G/T mismatch binding / release” value was “Failure of AMP-PNP and AMP-PCP to stimulate release”.
Turning to “Adenosine-5′-O-3-thiotriphosphate [ATP-gamma-S]”, on hMSH2:hMSH6 heterodimer [2], the IC50 is 3000 nM and the “S-shifted material re-associated with the DNA as NS-shifted heterodimer” value is on record as “approximately 15%”. Also, at hMSH2:hMSH6 heterodimer [2] (following incubation at 37° C., time not stated), the “mismatched DNA substrate binding activity recovered after magnesium addition” value is “about 22%”.
Regarding `Nc1ncnc2c1ncn2[C@@H]1O[C@H](COP(=O)(O)OP(=O)(O)OP(=O)(O)O)[C@@H](O)[C@H]1O` [ATP], the “mismatched DNA substrate binding activity recovered after magnesium addition” value at hMSH2:hMSH6 heterodimer [2] (15 micromolar nucleotide, ten minutes of incubation at 37° C.) was around 70%. In addition, on hMSH2:hMSH6 heterodimer [2], the IC50 is around 3000 nM and the “S-shifted material re-associated with the DNA as NS-shifted heterodimer” value is “approximately 15%”. In addition, the “effect on binding of the heterodimer to homoduplex DNA (NS binding)” value at hMSH2:hMSH6 heterodimer [2] (homoduplex DNA) is recorded as “not affected”. The “calculated Kcat for ATP” value in data set [3] (37° C.) is above 0.333 s⁻¹. In data set [3] (setting [10]), the Km was around 10 µM and the kcat entry is on record as “about 0.9 minute^1”. In data set [3] (setting [11]), the Km was around 23 µM and the kcat entry is reported as “about 7.4 minute-^1”. In addition, in data set [3] (setting [12]), the Michaelis-Menten constant (Km) was around 46 µM and the kcat entry was “about 26 minute-^1”.
Consider `Nc1ncnc2c1ncn2[C@@H]1O[C@H](COP(=O)(O)OP(=O)(O)NP(=O)(O)O)[C@@H](O)[C@H]1O` [AMP-PNP, adenylyl-imidodiphosphate], for which the “effect on G/T mismatch binding / release” value at hMSH2:hMSH6 heterodimer [2] was “Failure of AMP-PNP and AMP-PCP to stimulate release”.
As to “hMSH2:hMSH6 heterodimer: purified human mismatch recognition complex of hMSH2 and six-histidine-tagged hMSH6, overexpressed in SF9 insect cells”, in data set [4] (400-fold excess of non-labeled homoduplex DNA, no ATP), the “half-life of the G/T-mismatched DNA substrate-bound heterodimer” value is given as “greater than ten”. In data set [4] (buffer comprising neither an adenine nucleotide nor magnesium, gel shift and DNase footprint assays, read-out: apparent dissociation constant (Kd) for G/T mismatches), the Kd is around 20 nM. In data set [4] (compared with literature values for hMSH2 alone), the “efficiency of binding to a G/T mismatch relative to hMSH2 alone” value is “at least ten”. Also, the “saturability of binding of non-mismatched DNA” value in data set [5] was “not saturable”.

B1: G/T-mismatched 81-bp duplex (dsDNA)
DNA 1: AAAGCTGGAGCTGAAGCTTAGCTTAGGATCATCGAGGATCGAGCTCGGTGCAATTCAGCGGTACCCAATTCGCCCTATAGT
DNA 2: ACTATAGGGCGAATTGGGTACCGCTGAATTGCACCGAGCTTGATCCTCGATGATCCTAAGCTAAGCTTCAGCTCCAGCTTT
modifications: [G41 (strand 1) opposite T41 (strand 2), G/T mismatch]
For B1, the Kd with hMSH2:hMSH6 heterodimer [6] and in the data set with hMSH2:hMSH6 heterodimer [7] was 20 nM each time.

B2: homologous 39-bp duplex (dsDNA)
DNA 1: CGGCGAATTCCACCAAGCTTGATCGCTCGAGGTACCAGG
DNA 2: CCTGGTACCTCGAGCGATCAAGCTTGGTGGAATTCGCCG
With B2, the binding result in the data set with hMSH2:hMSH6 heterodimer [8] was “no binding”.
